Test results as given in BindingDB's records for doi:10.1021/jm100555f (Harvard Medical School, 2010).

Experiment: Inhibition of Bcr-Abl in mouse BA/F3 cells

SMILES | EC50
NS(=O)(=O)c1cccc(-c2cc(Nc3ccc(OC(F)(F)F)cc3)ncn2)c1 [3-(6-(4-(trifluoromethoxy)phenylamino)pyrimidin-4-yl)benzenesulfonamide] | 0.58 µM
NC(=O)c1cccc(Nc2cc(Nc3ccc(OC(F)(F)F)cc3)ncn2)c1 [3-(6-(4-(trifluoromethoxy)phenylamino)pyrimidin-4-ylamino)benzamide] | 2.92 µM
NC(=O)c1cccc(Oc2cc(Nc3ccc(OC(F)(F)F)cc3)ncn2)c1 [3-(6-(4-(trifluoromethoxy)phenylamino)pyrimidin-4-yloxy)benzamide] | 5 µM
O=C(O)c1cc2c(Nc3ccc(OC(F)(F)F)cc3)ncnc2s1 [4-(4-(trifluoromethoxy)phenylamino)thieno[2,3-d]pyrimidine-6-carboxylic acid] | > 10 µM
NC(=O)c1ccc(-c2cc(Nc3ccc(OC(F)(F)F)cc3)ncn2)cc1 [4-(6-(4-(trifluoromethoxy)phenylamino)pyrimidin-4-yl)benzamide] | 0.48 µM
NS(=O)(=O)c1ccc(-c2cc(Nc3ccc(OC(F)(F)F)cc3)ncn2)cc1 [4-(6-(4-(trifluoromethoxy)phenylamino)pyrimidin-4-yl)benzenesulfonamide] | 0.12 µM
NC(=O)c1ccc(Cn2ncc3c(Nc4ccc(OC(F)(F)F)cc4)ncnc32)cc1 [4-((4-(4-(trifluoromethoxy)phenylamino)-1H-pyrazolo[3,4-d]pyrimidin-1-yl)methyl)benzamide] | 6.89 µM
Cc1c(NCCN2CCOCC2)ncnc1Nc1ccc(OC(F)(F)F)cc1 [5-methyl-N4-(2-morpholinoethyl)-N6-(4-(trifluoromethoxy)phenyl)pyrimidine-4,6-diamine] | 0.97 µM
CC(C)Cn1cc(-c2cc(Nc3ccc(OC(F)(F)F)cc3)ncn2)cn1 [6-(1-isobutyl-1H-pyrazol-4-yl)-N-(4-(trifluoromethoxy)phenyl)pyrimidin-4-amine] | 0.36 µM
FC(F)(F)Oc1ccc(Nc2cc(-n3ccnc3)ncn2)cc1 [6-(1H-imidazol-1-yl)-N-(4-(trifluoromethoxy)phenyl)pyrimidin-4-amine] | 1.66 µM
FC(F)(F)Oc1ccc(Nc2cc(-c3cccc4[nH]ccc34)ncn2)cc1 [6-(1H-indol-4-yl)-N-(4-(trifluoromethoxy)phenyl)pyrimidin-4-amine] | 0.14 µM
FC(F)(F)Oc1ccc(Nc2cc(-c3ccc4[nH]ccc4c3)ncn2)cc1 [6-(1H-indol-5-yl)-N-(4-(trifluoromethoxy)phenyl)pyrimidin-4-amine] | 0.29 µM
FC(F)(F)Oc1ccc(Nc2cc(-c3cn[nH]c3)ncn2)cc1 [6-(1H-pyrazol-4-yl)-N-(4-(trifluoromethoxy)phenyl)pyrimidin-4-amine] | 0.09 µM
FC(F)(F)Oc1ccc(Nc2cc(-c3ccnc4[nH]ccc34)ncn2)cc1 [6-(1H-pyrrolo[2,3-b]pyridin-4-yl)-N-(4-(trifluoromethoxy)phenyl)pyrimidin-4-amine] | 0.17 µM
Cc1nc(-c2cc(Nc3ccc(OC(F)(F)F)cc3)ncn2)cs1 [6-(2-methylthiazol-4-yl)-N-(4-(trifluoromethoxy)phenyl)pyrimidin-4-amine] | 1.23 µM
CS(=O)(=O)c1cccc(-c2cc(Nc3ccc(OC(F)(F)F)cc3)ncn2)c1 [6-(3-(methylsulfonyl)phenyl)-N-(4-(trifluoromethoxy)phenyl)pyrimidin-4-amine] | 0.39 µM
Nc1cccc(-c2cc(Nc3ccc(OC(F)(F)F)cc3)ncn2)c1 [6-(3-aminophenyl)-N-(4-(trifluoromethoxy)phenyl)pyrimidin-4-amine] | 0.33 µM
Cc1c(-c2cc(Nc3ccc(OC(F)(F)F)cc3)ncn2)cnn1-c1ccccc1 [6-(5-methyl-1-phenyl-1H-pyrazol-4-yl)-N-(4-(trifluoromethoxy)phenyl)pyrimidin-4-amine] | 0.81 µM

SMILES | EC50
FC(F)(F)Oc1ccc(Nc2cc(-c3ccncc3)ncn2)cc1 [6-(pyridin-4-yl)-N-(4-(trifluoromethoxy)phenyl)pyrimidin-4-amine] | 0.47 µM
FC(F)(F)c1ccc(Nc2cc(-c3ccncc3)ncn2)cc1 [6-(pyridin-4-yl)-N-(4-(trifluoromethyl)phenyl)pyrimidin-4-amine] | 1.27 µM
FC(F)(F)c1ccc(Nc2cc(-c3ccncc3)ncn2)cn1 [6-(pyridin-4-yl)-N-(6-(trifluoromethyl)pyridin-3-yl)pyrimidin-4-amine] | 1.24 µM
FC(F)(F)Oc1ccc(Nc2cc(N3CCOCC3)ncn2)cc1 [6-morpholino-N-(4-(trifluoromethoxy)phenyl)pyrimidin-4-amine] | 1.8 µM
FC(F)(F)Oc1ccc(Nc2ncnc3c2ccn3CCN2CCOCC2)cc1 [7-(2-morpholinoethyl)-N-(4-(trifluoromethoxy)phenyl)-7H-pyrrolo[2,3-d]pyrimidin-4-amine] | 0.38 µM
Cn1ccc2c(Nc3ccc(OC(F)(F)F)cc3)ncnc21 [7-methyl-N-(4-(trifluoromethoxy)phenyl)-7H-pyrrolo[2,3-d]pyrimidin-4-amine] | 6.89 µM
O=C(c1cc2c(Nc3ccc(OC(F)(F)F)cc3)ncnc2s1)N1CCC(O)CC1 [(4-hydroxypiperidin-1-yl)(4-(4-(trifluoromethoxy)phenylamino)thieno[2,3-d]pyrimidin-6-yl)methanone] | 1.96 µM
CN1CCN(C(=O)c2cc3c(Nc4ccc(OC(F)(F)F)cc4)ncnc3s2)CC1 [(4-methylpiperazin-1-yl)(4-(4-(trifluoromethoxy)phenylamino)thieno[2,3-d]pyrimidin-6-yl)methanone] | 0.048 µM
FC(F)(F)Oc1ccc(Nc2ncnc(NCCN3CCOCC3)n2)cc1 [N2-(2-morpholinoethyl)-N4-(4-(trifluoromethoxy)phenyl)-1,3,5-triazine-2,4-diamine] | > 10 µM
FC(F)(F)Oc1ccc(Nc2ccnc(NCCN3CCOCC3)n2)cc1 [N2-(2-morpholinoethyl)-N4-(4-(trifluoromethoxy)phenyl)pyrimidine-2,4-diamine] | > 10 µM
FC(F)(F)Oc1ccc(Nc2cncc(NCCN3CCOCC3)n2)cc1 [N2-(2-morpholinoethyl)-N6-(4-(trifluoromethoxy)phenyl)pyrazine-2,6-diamine] | > 10 µM
FC(F)(F)Oc1ccc(Nc2ccc(NCCN3CCOCC3)nn2)cc1 [N3-(2-morpholinoethyl)-N6-(4-(trifluoromethoxy)phenyl)pyridazine-3,6-diamine] | > 10 µM
FC(F)(F)Oc1ccc(Nc2nccc(NCCN3CCOCC3)n2)cc1 [N4-(2-morpholinoethyl)-N2-(4-(trifluoromethoxy)phenyl)pyrimidine-2,4-diamine] | > 10 µM
FC(F)(F)Oc1cccc(Nc2cc(NCCN3CCOCC3)ncn2)c1 [N4-(2-morpholinoethyl)-N6-(3-(trifluoromethoxy)phenyl)pyrimidine-4,6-diamine] | > 10 µM
FC(F)(F)Oc1ccc(CNc2cc(NCCN3CCOCC3)ncn2)cc1 [N4-(2-morpholinoethyl)-N6-(4-(trifluoromethoxy)benzyl)pyrimidine-4,6-diamine] | > 10 µM
FC(F)(F)Oc1ccc(Nc2cc(NCCN3CCOCC3)ncn2)cc1 [N4-(2-morpholinoethyl)-N6-(4-(trifluoromethoxy)phenyl)pyrimidine-4,6-diamine] | 0.72 µM
FC(F)(F)c1ccc(Nc2cc(NCCN3CCOCC3)ncn2)cc1 [N4-(2-morpholinoethyl)-N6-(4-(trifluoromethyl)phenyl)pyrimidine-4,6-diamine] | 0.92 µM
